Source: patent publication US9856254B2, “Alkoxy substituted imidazoquinolines” (3M INNOVATIVE PROPERTIES COMPANY, priority 2003, dated 2018)

Structure (SMILES)	melting point
CCc1nc2c(N)nc3cc(OCCN4CCOCC4)ccc3c2n1CC1CCOCC1 [Example 568, 2-Ethyl-7-(2-morpholin-4-ylethoxy)-1-(tetrahydro-2H-pyran-4-ylmethyl)-1H-imidazo[4,5-c]quinolin-4-amine]	230 to 232 °C
CCOCc1nc2c(N)nc3cc(OCC(=O)N4CCOCC4)ccc3c2n1CC(C)(C)O [Example 646, 1-[4-Amino-2-(ethoxymethyl)-7-(2-morpholin-4-yl-2-oxoethoxy)-1H-imidazo[4,5-c]quinolin-1-yl]-2-methylpropan-2-ol]	209 to 211 °C
CCOCc1nc2c(N)nc3cc(OCCN4CCOCC4)ccc3c2n1CC(C)(C)O [Example 647, 1-[4-Amino-2-(ethoxymethyl)-7-(2-morpholin-4-ylethoxy)-1H-imidazo[4,5-c]quinolin-1-yl]-2-methylpropan-2-ol]	161 to 163 °C
CCCn1c(COCC)nc2c(N)nc3cc(OCC(=O)N4CCOCC4)ccc3c21 [Example 648, 2-(Ethoxymethyl)-7-(2-morpholin-4-yl-2-oxoethoxy)-1-propyl-1H-imidazo[4,5-c]quinolin-4-amine]	213 °C
CCc1nc2c(N)nc3cc(OCCN)ccc3c2n1CC1CCOCC1 [Example 650, 7-(2-Aminoethoxy)-2-ethyl-1-(tetrahydro-2H-pyran-4-ylmethyl)-1H-imidazo[4,5-c]quinolin-4-amine]	238 °C (dec.)
CCc1nc2c(N)nc3cc(OCCNC(=O)NC(C)C)ccc3c2n1CC1CCOCC1 [Example 651, N-(2-{[4-Amino-2-ethyl-1-(tetrahydro-2H-pyran-4-ylmethyl)-1H-imidazo[4,5-c]quinolin-7-yl]oxy}ethyl)-N′-isopropylurea]	223 to 225 °C
CCc1nc2c(N)nc3cc(OCCNC(C)=O)ccc3c2n1CC1CCOCC1 [Example 652, N-(2-{[4-Amino-2-ethyl-1-(tetrahydro-2H-pyran-4-ylmethyl)-1H-imidazo[4,5-c]quinolin-7-yl]oxy}ethyl)acetamide]	165 to 167 °C
CCOCc1nc2c(N)nc3cc(OCCN)ccc3c2n1CC(C)(C)O [Example 654, 1-[4-Amino-7-(2-aminoethoxy)-2-(ethoxymethyl)-1H-imidazo[4,5-c]quinolin-1-yl]-2-methylpropan-2-ol]	163 to 165 °C
CCOCc1nc2c(N)nc3cc(OC4CCN(C(C)=O)CC4)ccc3c2n1CC(C)(C)O [Example 656, 1-[7-[(1-Acetylpiperidin-4-yl)oxy]-4-amino-2-(ethoxymethyl)-1H-imidazo[4,5-c]quinolin-1-yl]-2-methylpropan-2-ol]	162 to 164 °C
CCCn1c(COC)nc2c(N)nc3ccc(OCCCN4CCN(c5ccccn5)CC4)cc3c21 [Example 657, 2-(Methoxymethyl)-1-propyl-8-[3-(4-pyridin-2-ylpiperazin-1-yl)propoxy]-1H-imidazo[4,5-c]quinolin-4-amine]	196 to 197 °C

Next, values leading:

melting point	Structure (SMILES)
196 to 197 °C	CCCn1c(COCC)nc2c(N)nc3ccc(OCC(=O)N4CCOCC4)cc3c21 [Example 566, 2-(Ethoxymethyl)-8-(2-morpholin-4-yl-2-oxoethoxy)-1-propyl-1H-imidazo[4,5-c]quinolin-4-amine]
155 to 157 °C	CCCn1c(COC)nc2c(N)nc3ccc(OCCC4CCCN4C)cc3c21 (stereo not shown) [Example 567, 2-(Methoxymethyl)-8-[2-(1-methylpyrrolidin-2-yl)ethoxy]-1-propyl-1H-imidazo[4,5-c]quinolin-4-amine]
178 to 179 °C	CCCn1c(COCC)nc2c(N)nc3ccc(OCC4CCCO4)cc3c21 (stereo not shown) [Example 569, 2-(Ethoxymethyl)-1-propyl-8-(tetrahydrofuran-2-ylmethoxy)-1H-imidazo[4,5-c]quinolin-4-amine]
193 to 196 °C	CCCn1c(COCC)nc2c(N)nc3ccc(OC(=O)N4CCOCC4)cc3c21 [Example 570, 4-Amino-2-(ethoxymethyl)-1-propyl-1H-imidazo[4,5-c]quinolin-8-yl morpholine-4-carboxylate]
146 to 148 °C	CCCn1c(COCC)nc2c(N)nc3ccc(OCCN4CCCCCC4)cc3c21 [Example 571, 8-(2-Azepan-1-ylethoxy)-2-(ethoxymethyl)-1-propyl-1H-imidazo[4,5-c]quinolin-4-amine]
191 to 192 °C	CCCn1c(COCC)nc2c(N)nc3cc(OCCN4CCOCC4)ccc3c21 [Example 649, 2-(Ethoxymethyl)-7-(2-morpholin-4-ylethoxy)-1-propyl-1H-imidazo[4,5-c]quinolin-4-amine]
